Values quoted from earlier work in patent US20100104547A1, “TOPICAL COMPOSITION FOR THE TREATMENT OF ALLERGENIC EFFECTS” (priority 2005, published 2010).

B1: papain (protein, UniProt P00784 134-345, looked up)
Papain: IPEYVDWRQKGAVTPVKNQGSCGSCWAFSAVVTIEGIIKIRTGNLNEYSEQELLDCDRRSYGCNGGYPWSALQLVAQYGIHYRNTYPYEGVQRYCRSREKGPYAAKTDGVRQVQPYNEGALLYSIANQPVSVVLEAAGKDFQLYRGGIFVGPCGNKVDHAVAAVGYGPNYILIKNSWGTGWGENGYIRIKRGTGNSYGVCGLYTSSFYPVKN
notes: proteolytic enzyme, commonly in the form of meat tenderizer

Key:
[1] = topical application
[2] = mice, bee venom intradermal; test substance by intradermal injection or topical application

Molecule	reducing the itch associated with mosquito and black fly bites [1]	inhibition of lesion development [2]
pancreatin	effective	–
subtilisin	effective	–
B1	effective	no marked inhibition
